Results as given in ChEMBL document CHEMBL1201862, “PubChem BioAssay data set” (2004).
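Cultured in 96-well plates, cells were exposed to test compound for 48 hours across five concentrations. Here, GI50 denotes the concentration required for 50% inhibition of growth.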 The source made the active and inactive calls. Rule as the data show it: active = GI50 up to about 1.1 µM and inactive = higher.

Legend:
Assay in all cases: inhibition of tumour cell growth, NCI panel, 48 h
[1] = test system: NCI/ADR-RES
[2] = test system: SK-MEL-28
[3] = test system: RPMI-8226
[4] = test system: K562
[5] = test system: PC-3
[6] = test system: A549
[7] = test system: CCRF-CEM
[8] = test system: BT-549
[9] = test system: U-251
[10] = test system: UACC-62
[11] = test system: Hs-578T
[12] = test system: HL-60
[13] = test system: HOP-92
[14] = test system: COLO 205
[15] = test system: NCI-H23
[16] = test system: OVCAR-4
[17] = test system: UO-31
[18] = test system: T47D
[19] = test system: CAKI-1
[20] = test system: OVCAR-5

SMILES | GI50 [1] | GI50 [2] | GI50 [3] | GI50 [4] | GI50 [5] | GI50 [6] | GI50 [7] | GI50 [8] | GI50 [9] | GI50 [10] | GI50 [11] | GI50 [12] | GI50 [13] | GI50 [14] | GI50 [15] | GI50 [16] | GI50 [17] | GI50 [18] | GI50 [19] | GI50 [20]
CCc1c(N=[N+]=[N-])c2ccccc2oc1=O | > 100 µM (inactive) | > 100 µM (inactive) | > 100 µM (inactive) | > 100 µM (inactive) | > 100 µM (inactive) | > 100 µM (inactive) | > 100 µM (inactive) | > 100 µM (inactive) | > 100 µM (inactive) | > 100 µM (inactive) | 49.8 µM (inactive) | > 100 µM (inactive) | > 100 µM (inactive) | > 100 µM (inactive) | > 100 µM (inactive) | > 100 µM (inactive) | > 100 µM (inactive) | > 100 µM (inactive) | – | –
Cc1ccc2nc(N/N=C/c3cccc(C)n3)cc(C)c2c1 | 16.2 µM (inactive) | 17.1 µM (inactive) | 14 µM (inactive) | 45 µM (inactive) | 17.7 µM (inactive) | 16 µM (inactive) | – | 18.8 µM (inactive) | 16.9 µM (inactive) | 15.2 µM (inactive) | 23.8 µM (inactive) | 2.26 µM (inactive) | 17.6 µM (inactive) | 15 µM (inactive) | 18.8 µM (inactive) | 16.6 µM (inactive) | 19.7 µM (inactive) | 16 µM (inactive) | 16.8 µM (inactive) | 14.3 µM (inactive)
CCOC(=O)c1cccc(NC(=O)CI)c1 | 0.5 µM (active) | 2.2 µM (inactive) | 0.721 µM (active) | 0.191 µM (active) | 1.14 µM (inactive) | 1.75 µM (inactive) | 0.0239 µM (active) | 0.381 µM (active) | 0.313 µM (active) | 0.575 µM (active) | 2.34 µM (inactive) | 0.653 µM (active) | 1.07 µM (active) | 0.531 µM (active) | 0.336 µM (active) | 0.5 µM (active) | 0.189 µM (active) | 1.39 µM (inactive) | 0.55 µM (active) | 1.64 µM (inactive)
Cc1ccc(/C=C2\CCS(=O)(=O)c3ccccc3C2=O)cc1 | 11.5 µM (inactive) | 17.8 µM (inactive) | 31.4 µM (inactive) | > 100 µM (inactive) | 20.4 µM (inactive) | 35.6 µM (inactive) | 13.8 µM (inactive) | 17.5 µM (inactive) | 14 µM (inactive) | 17.3 µM (inactive) | 37.4 µM (inactive) | 19.8 µM (inactive) | 15 µM (inactive) | 15.2 µM (inactive) | 15.5 µM (inactive) | 15 µM (inactive) | 12.6 µM (inactive) | 16.1 µM (inactive) | 18.3 µM (inactive) | 26.7 µM (inactive)
CCOC(=O)[C@H]1C[C@]23CN(C(=O)OC(C)(C)C)CC[C@H]2CCC2(SCCCS2)[C@@H]3N1C | 27.2 µM (inactive) | 91 µM (inactive) | 20.4 µM (inactive) | 36.6 µM (inactive) | 25.2 µM (inactive) | 37.8 µM (inactive) | 29.1 µM (inactive) | 50.2 µM (inactive) | 34.4 µM (inactive) | 40.5 µM (inactive) | 51.6 µM (inactive) | 20.7 µM (inactive) | 14.1 µM (inactive) | 28.2 µM (inactive) | 42 µM (inactive) | 16 µM (inactive) | 37.8 µM (inactive) | 25.8 µM (inactive) | 33.8 µM (inactive) | 50.5 µM (inactive)
Cc1cc(C)nc(NS(=O)(=O)c2ccc(Nc3c4ccccc4nc4c(C(=O)NCCO)cccc34)cc2)n1 | 48.5 µM (inactive) | 19.6 µM (inactive) | 10.3 µM (inactive) | 12.4 µM (inactive) | 23.2 µM (inactive) | 29.6 µM (inactive) | 10.3 µM (inactive) | 17.6 µM (inactive) | 17.1 µM (inactive) | 21.5 µM (inactive) | 53.1 µM (inactive) | 31.8 µM (inactive) | > 100 µM (inactive) | 15.1 µM (inactive) | 23.8 µM (inactive) | 33.3 µM (inactive) | > 10 µM (inactive) | 25.9 µM (inactive) | 23.3 µM (inactive) | 24.5 µM (inactive)
O=c1cc(-c2ccccc2)oc2ccc(Oc3nnnn3-c3ccccc3)cc12 | 78.2 µM (inactive) | > 55.8 µM (inactive) | > 100 µM (inactive) | 3.58 µM (inactive) | > 100 µM (inactive) | > 90.8 µM (inactive) | > 100 µM (inactive) | 15.3 µM (inactive) | 35 µM (inactive) | > 48.2 µM (inactive) | 28.3 µM (inactive) | > 100 µM (inactive) | 20.1 µM (inactive) | > 87.3 µM (inactive) | > 62.7 µM (inactive) | > 28.2 µM (inactive) | > 100 µM (inactive) | 12.1 µM (inactive) | > 50.1 µM (inactive) | > 100 µM (inactive)
COc1ccc(NC(=O)CC(=O)N2N=C(c3ccccc3)C(/N=N/c3ccc(S(=O)(=O)CCOS(=O)(=O)O)cc3)C2=O)cc1 (centres undefined) | > 100 µM (inactive) | > 100 µM (inactive) | > 100 µM (inactive) | > 100 µM (inactive) | > 100 µM (inactive) | > 100 µM (inactive) | > 100 µM (inactive) | > 100 µM (inactive) | > 100 µM (inactive) | > 100 µM (inactive) | > 100 µM (inactive) | > 100 µM (inactive) | > 100 µM (inactive) | > 100 µM (inactive) | > 100 µM (inactive) | – | > 100 µM (inactive) | > 100 µM (inactive) | > 100 µM (inactive) | –
C=CC(CCc1ccc(C(=O)OCC)cc1)c1c(N)nc(N)[nH]c1=O (centres undefined) | > 100 µM (inactive) | > 100 µM (inactive) | 44.8 µM (inactive) | > 100 µM (inactive) | 52.6 µM (inactive) | > 100 µM (inactive) | 73.3 µM (inactive) | > 100 µM (inactive) | > 100 µM (inactive) | > 100 µM (inactive) | > 100 µM (inactive) | 28.5 µM (inactive) | 12.6 µM (inactive) | > 100 µM (inactive) | 91.8 µM (inactive) | 27.2 µM (inactive) | 43.7 µM (inactive) | 72.4 µM (inactive) | 86.3 µM (inactive) | –
C=C1CCC[C@@H](C)C(O)[C@@H]2OC(=O)C(=C)[C@@H]2C[C@@H](OC(C)=O)[C@@]2(C)CC[C@@H]1O2 (some centres undefined) | 6.78 µM (inactive) | 7.98 µM (inactive) | 8.85 µM (inactive) | 5.5 µM (inactive) | 8.39 µM (inactive) | 15.8 µM (inactive) | 1.54 µM (inactive) | 7.52 µM (inactive) | 9.57 µM (inactive) | 4.53 µM (inactive) | 8.67 µM (inactive) | – | 7.96 µM (inactive) | 6.37 µM (inactive) | 8.09 µM (inactive) | 13.7 µM (inactive) | 8.09 µM (inactive) | 9.66 µM (inactive) | 6.89 µM (inactive) | 7.87 µM (inactive)
CN(C)c1ccc(/C=C2\C[C@H]3[C@@H]4CC=C5C[C@@H](N6CCCC6)CC[C@]5(C)[C@H]4CC[C@]3(C)[C@H]2O)cc1 | 1.62 µM (inactive) | 0.977 µM (active) | 0.973 µM (active) | 1.21 µM (inactive) | 2.18 µM (inactive) | 1.36 µM (inactive) | – | 3.18 µM (inactive) | 0.925 µM (active) | 0.871 µM (active) | 0.883 µM (active) | 1.15 µM (inactive) | 2.47 µM (inactive) | 1.52 µM (inactive) | 3.66 µM (inactive) | 0.796 µM (active) | 0.838 µM (active) | 0.998 µM (active) | 1.16 µM (inactive) | 3.99 µM (inactive)
CSc1c(C#N)c(N)n(-c2ccc(Cl)cc2)c(=O)c1C#N | > 100 µM (inactive) | > 100 µM (inactive) | > 100 µM (inactive) | > 100 µM (inactive) | > 100 µM (inactive) | > 100 µM (inactive) | – | > 100 µM (inactive) | > 100 µM (inactive) | > 100 µM (inactive) | > 100 µM (inactive) | 46.3 µM (inactive) | 21 µM (inactive) | > 100 µM (inactive) | > 100 µM (inactive) | > 100 µM (inactive) | > 100 µM (inactive) | > 100 µM (inactive) | > 100 µM (inactive) | > 100 µM (inactive)
O=C1Nc2ccccc2/C1=C\c1c(Cl)[nH]c2ccccc12 | 0.355 µM (active) | 0.299 µM (active) | 0.589 µM (active) | 0.364 µM (active) | 0.649 µM (active) | 1.23 µM (inactive) | 0.358 µM (active) | 0.832 µM (active) | 0.518 µM (active) | 1.05 µM (active) | 0.409 µM (active) | 0.251 µM (active) | 0.48 µM (active) | 0.288 µM (active) | 2.45 µM (inactive) | – | 1.66 µM (inactive) | 24 µM (inactive) | 0.537 µM (active) | 1.44 µM (inactive)
Clc1n[nH]c2ccccc12 | > 100 µM (inactive) | > 100 µM (inactive) | > 100 µM (inactive) | > 100 µM (inactive) | > 100 µM (inactive) | > 100 µM (inactive) | > 100 µM (inactive) | 14.7 µM (inactive) | > 100 µM (inactive) | > 100 µM (inactive) | > 100 µM (inactive) | > 100 µM (inactive) | > 100 µM (inactive) | > 100 µM (inactive) | > 100 µM (inactive) | > 100 µM (inactive) | > 100 µM (inactive) | > 100 µM (inactive) | – | > 100 µM (inactive)
